Read-outs that look alike come from different tables or passages of the source.
What was measured:
[1] = biological target: T1, interaction between GMPPNP-bound recombinant K-Ras4B G12C mutant protein and cRAF RAS-binding domain (cRAF-RBD) (Homo sapiens, UniProt P01116, G12C); assay: Inhibitory activity on interaction between KRAS G12C and cRAF (Alpha technology); details: Table 2-1
T1 construct: His-tag (N)
Method in brief: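 His-tagged K-Ras4B G12C (aa 1-169), GMPPNP-loaded, preincubated with compound 1 h at 25° C in pH 7.5 Tris buffer with MgCl2, TCEP, Tween 20. cRAF-RBD (aa 50-132) and Alpha reagents then added for 1.5 h; Alpha signal normalised to DMSO (0%) and GDP-bound KRAS (100%); IC50 from dose titration.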

[2] = system: MIA PaCa-2 cells; assay: Growth inhibition activity on KRAS-G12C mutant cell line (CellTiter-Glo 3D); format: cell-based, human; details: MIA PaCa-2, 3-day culture with compound, Table 3-1
Method in brief: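 MIA PaCa-2 cells in RPMI1640 with 10% FBS, U-bottom wells, cultured 1 day before compound (0.2% DMSO final), then 3 days at 37 °C, 5% CO2. Viability by CellTiter-Glo 3D luminescence; growth inhibition versus untreated wells gives IC50 (nM).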

[3] = GMPPNP-bound KRAS G12C incubated with compound 25° C. 1 hour, read-out: IC50
[4] = IC50, GMPPNP-bound KRAS G12C incubated with compound 25° C. 1 hour

T1 sequence (P01116 with tags, fused parts or gaps isoform P01116-2 G12C): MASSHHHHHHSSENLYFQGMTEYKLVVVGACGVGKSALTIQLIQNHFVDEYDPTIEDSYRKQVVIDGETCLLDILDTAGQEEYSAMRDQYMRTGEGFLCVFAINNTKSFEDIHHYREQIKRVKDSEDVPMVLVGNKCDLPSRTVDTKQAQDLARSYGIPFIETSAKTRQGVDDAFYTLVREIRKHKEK

Row | Compound | IC50 [1, 3] [nM] | IC50 ([2]; Homo sapiens, MIA PaCa-2, 72 h) [nM] | IC50 [1, 4] [nM] | IC50 [2] [nM]
1 | Cn1cnc2c3c(c(C(F)(F)F)cc21)-c1cccn2c(C(=O)c4cc(F)c(NC(=O)/C=C/CNC5(C)COC5)c(F)c4)cc(c12)CCO3 (single isomer, unassigned) [Example 75, (E)-N-(2,6-difluoro-4-(9-methyl-7-(trifluoro-methyl)-13,14-dihydro-9H-imidazo[4″,5″:5′,6′]-benzo[1′,2′:2,3]oxocino-[4,5,6-hi]indolizine-2-carbonyl)phenyl)-4-((3-methyloxetan-3-yl)-amino)but-2-enamide] | 15.9 | 9.48 | – | –
2 | CN1CCc2cc(C(=O)c3cc(F)c(NC(=O)/C=C/CNC4(C)COC4)c(F)c3)n3cccc(c23)-c2c(C(F)(F)F)cc3c(ncn3C)c21 (single isomer, unassigned) [Example 83] | 33.9 | 15.4 | – | –
3 | Cc1nc2c3c(c(C(F)(F)F)cc2n1C)-c1cccc2c(C(=O)c4cc(F)c(NC(=O)/C=C/CN[C@H]5CCOC5)c(F)c4)cn(c12)CCN3C (single isomer, unassigned) [Example 87] | – | 3.27 | 18.2 | –
4 | CN1CCc2cc(C(=O)c3cc(F)c(NC(=O)/C=C/CN[C@@H]4CCOC4)c(F)c3)n3cccc(c23)-c2c(C(F)(F)F)cc3c(ncn3C)c21 (single isomer, unassigned) [Example 89] | 16 | 4.37 | – | –
5 | Cc1cc2c(nc(C)n2C)c2c1-c1cccc3c(C(=O)c4cc(F)c(NC(=O)/C=C/CN[C@H]5CCOC5)c(F)c4)cn(c13)CCN2C (single isomer, unassigned) [Example 90] | – | 21.6 | 17.2 | –
6 | COCc1nc2c3c(c(C(F)(F)F)cc2n1C)-c1cccn2c(C(=O)c4cc(F)c(NC(=O)/C=C/CNC5(C)COC5)c(F)c4)cc(c12)CCN3C (single isomer, unassigned) [Example 92, (E)-N-(2,6-difluoro-4-(10-(methoxymethyl)-9,12-dimethyl-7-(trifluoromethyl)-9,12,13,14-tetrahydroimidazo[4″,5″:5′,6′]benzo[1′,2′:2,3]azocino[4,5,6-hi]indolizine-2-carbonyl)phenyl)-4-((3-methyloxetan-3-yl)amino)but-2-enamide] | 19.9 | 12.1 | – | –
7 | Cc1nc2c3c(c(C(F)(F)F)cc2n1C)-c1cccc2c(C(=O)c4cc(F)c(NC(=O)/C=C/CN[C@@H]5CCOC5)c(F)c4)cn(c12)CCN3C (single isomer, unassigned) [Example 95] | – | 11.4 | 31.2 | –
8 | COCc1nc2c3c(c(C(F)(F)F)cc2n1C)-c1cccc2c(C(=O)c4cc(F)c(NC(=O)/C=C/CNC5(C)COC5)c(F)c4)cn(c12)CCN3C (single isomer, unassigned) [Example 97, (E)-N-(2,6-difluoro-4-(9-(methoxymethyl)-8,11-dimethyl-6-(trifluorometh-yl)-8,11,12,13-tetrahydro-imidazo[4″,5″:5′,6′]benzo-[1′,2′:5,6][1,4]diazocino-[7,8,1-hi]indole-2-carbon-yl)phenyl)-4-((3-methyl-oxetan-3-yl)amino)but-2-enamide] | – | 7.91 | 30.4 | –
9 | COCc1nc2c3c(c(C(F)(F)F)cc2n1C)-c1cccn2c(C(=O)c4cc(F)c(NC(=O)/C=C/CN[C@H]5CCOC5)c(F)c4)cc(c12)CCN3C (single isomer, unassigned) [Example 98] | 11.1 | 3.94 | – | –
10 | COCc1nc2c3c(c(C(F)(F)F)cc2n1C)-c1cccn2c(C(=O)c4cc(F)c(NC(=O)/C=C/CNC5(C)COC5)c(F)c4)cc(c12)CCO3 (single isomer, unassigned) [Example 99, (E)-N-(2,6-difluoro-4-(10-(methoxymethyl)-9-meth-yl-7-(trifluoromethyl)-13,14-dihydro-9H-imidazo[4″,5″:5′,6′]benzo-[1′,2′:2,3]oxocino[4,5,6-hi]indolizine-2-carbonyl)-phenyl)-4-((3-methyl-oxetan-3-yl)amino)-but-2-enamide] | 12.2 | 9.79 | – | –
11 | COCc1nc2c3c(c(C)cc2n1C)-c1cccn2c(C(=O)c4cc(F)c(NC(=O)/C=C/CN[C@H]5CC[C@H](OC)CC5)c(F)c4)cc(c12)CCN3C (single isomer, unassigned) [Example 105, (E)-N-(2,6-difluoro-4-(10-(methoxymethyl)-7,9,12-trimethyl-9,12,13,14-tetra-hydroimidazo[4″,5″:5′,6′]-benzo[1′,2′:2,3]azocino-[4,5,6-hi]indolizine-2-carbonyl)phenyl)-4-(((1r,4r)-4-methoxycyclo-hexyl)amino)but-2-en-amide] | 19.2 | 15.5 | – | –
12 | COCc1nc2c3c(c(C)cc2n1C)-c1cccn2c(C(=O)c4cc(F)c(NC(=O)/C=C/CN[C@H]5CCOC5)c(F)c4)cc(c12)CCN3C (single isomer, unassigned) [Example 106] | 18 | 21.9 | – | –
13 | Cc1cc2c(nc(C)n2C)c2c1-c1cccn3c(C(=O)c4cc(F)c(NC(=O)/C=C/CN[C@H]5CCOC5)c(F)c4)cc(c13)CCN2C (single isomer, unassigned) [Example 107] | 23.7 | 29.7 | – | –
14 | Cc1cc2c(ncn2C)c2c1-c1cccn3c(C(=O)c4cc(F)c(NC(=O)/C=C/CN[C@H]5CCOC5)c(F)c4)cc(c13)CCN2C (single isomer, unassigned) [Example 117] | 20.5 | 55.3 | – | –
15 | COc1cc2c(nc(C)n2C)c2c1-c1cccn3c(C(=O)c4cc(F)c(NC(=O)/C=C/CN[C@H]5CCOC5)c(F)c4)cc(c13)CCN2C (single isomer, unassigned) [Example 129] | 8.8 | 7.11 | – | –
16 | CC1Cc2cc(C(=O)c3cc(F)c(NC(=O)/C=C/CNC4(C)COC4)c(F)c3)n3cccc(c23)-c2c(C(F)(F)F)cc3c(ncn3C)c2O1 (single isomer, unassigned) [Example 130-1, (E)-N-(4-(9,13-dimethyl-7-(trifluoromethyl)-13,14-dihydro-9H-imidazo[4″,5″:5′,6′]benzo[1′,2′:2,3]oxocino[4,5,6-hi]indolizine-2-carbonyl)-2,6-difluorophenyl)-4-((3-methyloxetan-3-yl)amino)but-2-enamide] | 26.3 | – | – | 17.4
17 | CC1Cc2cc(C(=O)c3cc(F)c(NC(=O)/C=C/CNC4(C)COC4)c(F)c3)n3cccc(c23)-c2c(C(F)(F)F)cc3c(ncn3C)c2O1 (single isomer, unassigned) [Example 130-2, (E)-N-(4-(9,13-dimethyl-7-(trifluoromethyl)-13,14-dihydro-9H-imidazo[4″,5″:5′,6′]benzo[1′,2′:2,3]oxocino[4,5,6-hi]indolizine-2-carbonyl)-2,6-difluorophenyl)-4-((3-methyloxetan-3-yl)amino)but-2-enamide] | 3760 | – | – | 3410
18 | CC1Cc2cc(C(=O)c3cc(F)c(NC(=O)/C=C/CNC4(C)COC4)c(F)c3)n3cccc(c23)-c2c(C(F)(F)F)cc3c(ncn3C)c2O1 (single isomer, unassigned) [Example 131, (E)-N-(4-(9,13-dimethyl-7-(trifluoromethyl)-13,14-dihydro-9H-imidazo[4″,5″:5′,6′]benzo[1′,2′:2,3]oxocino[4,5,6-hi]indolizine-2-carbonyl)-2,6-difluorophenyl)-4-((3-methyloxetan-3-yl)amino)but-2-enamide] | 27.9 | – | – | 40.8
19 | COc1cc2c(nc(C)n2C)c2c1-c1cccn3c(C(=O)c4cc(F)c(NC(=O)/C=C/CNC5(C)CC5)c(F)c4)cc(c13)CCN2C (single isomer, unassigned) [Example 140, (E)-N-(2,6-difluoro-4-(7-methoxy-9,10,12-trimethyl-9,12,13,14-tetrahydroimidazo[4″,5″:5′,6′]benzo[1′,2′:2,3]azocino[4,5,6-hi]indolizine-2-carbonyl)phenyl)-4-((1-methylcyclopropyl)amino)but-2-enamide] | 4.13 | 7.59 | – | –
20 | COc1cc2c(nc(C)n2C)c2c1-c1cccn3c(C(=O)c4cc(F)c(NC(=O)/C=C/CNC5(C)COC5)c(F)c4)cc(c13)CCN2C (single isomer, unassigned) [Example 141, (E)-N-(2,6-difluoro-4-(7-methoxy-9,10,12-trimethyl-9,12,13,14-tetrahydroimidazo[4″,5″: 5′,6′]benzo[1′,2′:2,3]-azocino[4,5,6-hi]indol-izine-2-carbonyl)phenyl)-4-((3-methyloxetan-3-yl)-amino)but-2-enamide] | 9.71 | 34.3 | – | –
21 | Cc1cc2c(C)n(C)nc2c2c1-c1cccn3c(C(=O)c4cc(F)c(NC(=O)/C=C/CNC5(C)COC5)c(F)c4)cc(c13)CCN2C (single isomer, unassigned) [Example 145, (E)-N-(2,6-difluoro-4-(7,9,10,12-tetramethyl-10,12,13,14-tetrahydro-indolizino[8′,1′:4,5,6]-azocino[3,2-g]indazole-2-carbonyl)phenyl)4-((3-methyloxetan-3-yl)-amino)-but-2-enamide] | 72.3 | 162 | – | –
22 | CN1CCc2cc(C(=O)c3cc(F)c(NC(=O)/C=C/CNC4(C)COC4)c(F)c3)n3cccc(c23)-c2c(C(F)(F)F)cc3c(ncn3C3CC3)c21 (single isomer, unassigned) [Example 153, (E)-N-(4-(9-cyclopropyl-12-methyl-7-(trifluoro-methyl)-9,12,13,14-tetra-hydroimidazo[4″,5″:5′,6′]-benzo[1′,2′:2,3]azocino-[4,5,6-hi]indolizine-2-carbonyl)-2,6-difluoro-phenyl)-4-((3-methyloxe-tan-3-yl)amino)but-2-enamide] | 31.5 | 118 | – | –
